Each compound was assayed against T1, wild-type human ALK cytoplasmic domain (amino acids 1058-1620) (Homo sapiens, UniProt Q9UM73) (assay: ALK Inhibition in Enzyme Assay (Lance TR-FRET)). Conditions: not given.
T1 construct: The cytoplasmic domain (amino acids 1058-1620) of wild-type human ALK; GST (N); made in house; host or cells: SF9 insect cells
Format: biochemical
Procedure: ALK Inhibition in Enzyme Assay
Kinase activity of the purified protein was assessed using a Lance® TR-FRET assay. […] The reaction was allowed to proceed for 90 minutes at room temperature and was then terminated with 20 mM EDTA in 50 mM Tris (pH 7.5), 100 mM NaCl, 0.05% BSA, and 0.1% Tween-20. Phosphorylation of the peptide substrate was detected using the Lance® detection reagents streptavidin-allophycocyanin (SA-APC) and Eu-W1024 anti-phosphotyrosine antibody (PT66) from Perkin Elmer Life Sciences (Waltham, Mass.). The plates were read on a RUBY star plate reader (BMG LABTECH, Cary, N.C.) with an excitation wavelength of 320 nm.

T1 sequence (Q9UM73 1058-1620): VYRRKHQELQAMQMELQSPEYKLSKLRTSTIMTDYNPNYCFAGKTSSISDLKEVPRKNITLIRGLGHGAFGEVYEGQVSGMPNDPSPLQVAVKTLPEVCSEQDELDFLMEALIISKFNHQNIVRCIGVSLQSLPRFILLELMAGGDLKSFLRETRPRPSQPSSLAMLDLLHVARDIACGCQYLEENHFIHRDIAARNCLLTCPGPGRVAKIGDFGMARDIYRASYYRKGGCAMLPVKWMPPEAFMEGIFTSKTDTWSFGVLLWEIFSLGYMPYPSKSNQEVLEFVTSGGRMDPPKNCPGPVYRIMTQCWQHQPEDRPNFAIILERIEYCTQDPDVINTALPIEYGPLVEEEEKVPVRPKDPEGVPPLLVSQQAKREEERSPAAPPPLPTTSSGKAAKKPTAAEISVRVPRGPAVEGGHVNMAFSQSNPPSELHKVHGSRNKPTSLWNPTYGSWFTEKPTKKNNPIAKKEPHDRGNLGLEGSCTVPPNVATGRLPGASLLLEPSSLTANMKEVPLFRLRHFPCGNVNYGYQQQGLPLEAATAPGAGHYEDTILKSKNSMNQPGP

IC50 | SMILES
1000 to 5000 nM | COc1cc(Nc2nccc(N3CCC[C@H](C(=O)NCc4ccc([N+](=O)[O-])cc4)C3)n2)cc(OC)c1OC [Example 71, (S)-N-(4-nitrobenzyl)-1-(2-((3,4,5-trimethoxyphenyl)amino)-4-pyrimidinyl)-3-piperidinecarboxamide]

Same assay, conditions: 2 nM enzyme, ATP at 40 μM (Km apparent), 90 minutes, mean of three replicates; read-out: ALK IC50

SMILES | IC50
COc1cc(Nc2nccc(N3CCC[C@H](C(=O)NCc4ccc(-n5cccn5)cc4)C3)n2)cc(OC)c1OC [Example 46, (S)-N-(4-(1H-pyrazol-1-yl)benzyl)-1-(2-((3,4,5-trimethoxyphenyl)amino)-4-pyrimidinyl)-3-piperidinecarboxamide] | 1000 to 5000 nM
COc1cc(Nc2nccc(N3CCC[C@H](C(=O)NCc4ccc(Br)cc4)C3)n2)cc(OC)c1OC [Example 47, (S)-N-(4-bromobenzyl)-1-(2-((3,4,5-trimethoxyphenyl)amino)-4-pyrimidinyl)-3-piperidinecarboxamide] | 50 to 100 nM
COc1cc(Nc2nccc(N3CCC[C@H](C(=O)NC(C)c4ccc(F)cc4)C3)n2)cc(OC)c1OC (stereo partly drawn) [Example 51, (S)-N-(1-(4-fluorophenyl)ethyl)-1-(2-((3,4,5-trimethoxyphenyl)amino)-4-pyrimidinyl)-3-piperidinecarboxamide] | 100 to 1000 nM
COc1cc(Nc2nccc(N3CCC[C@H](C(=O)NC(C)(C)c4ccccc4)C3)n2)cc(OC)c1OC [Example 54, (S)-N-(1-methyl-1-phenylethyl)-1-(2-((3,4,5-trimethoxyphenyl)amino)-4-pyrimidinyl)-3-piperidinecarboxamide] | 1000 to 5000 nM
COc1cc(Nc2nccc(N3CCC[C@H](C(=O)NC(C)c4ccc(C)cc4)C3)n2)cc(OC)c1OC (stereo partly drawn) [Example 55, (S)-N-(1-(4-methylphenyl)ethyl)-1-(2-((3,4,5-trimethoxyphenyl)amino)-4-pyrimidinyl)-3-piperidinecarboxamide] | 100 to 1000 nM
COc1cc(Nc2nccc(N3CCC[C@H](C(=O)NCc4ccc(F)cc4F)C3)n2)cc(OC)c1OC [Example 57, (S)-N-(2,4-difluorobenzyl)-1-(2-((3,4,5-trimethoxyphenyl)amino)-4-pyrimidinyl)-3-piperidinecarboxamide] | 50 to 100 nM
COc1cc(Nc2nccc(N3CCC[C@H](C(=O)NCc4cc(Br)ccc4F)C3)n2)cc(OC)c1OC [Example 58, (S)-N-(5-bromo-2-fluorobenzyl)-1-(2-((3,4,5-trimethoxyphenyl)amino)-4-pyrimidinyl)-3-piperidinecarboxamide] | < 50 nM
COc1cc(Nc2nccc(N3CCC[C@H](C(=O)NCCc4ccc(Br)cc4)C3)n2)cc(OC)c1OC [Example 60, (S)-N-(2-(4-bromophenyl)ethyl)-1-(2-((3,4,5-trimethoxyphenyl)amino)-4-pyrimidinyl)-3-piperidinecarboxamide] | 50 to 100 nM
COc1cc(Nc2nccc(N3CCC[C@H](C(=O)NCc4ccc5ccsc5c4)C3)n2)cc(OC)c1OC [Example 64, (S)-N-(1-benzothiophen-6-ylmethyl)-1-(2-((3,4,5-trimethoxyphenyl)amino)-4-pyrimidinyl)-3-piperidinecarboxamide] | 100 to 1000 nM
COc1cc(Nc2nccc(N3CCC[C@H](C(=O)NCc4ccc(Cl)c(Cl)c4)C3)n2)cc(OC)c1OC [Example 65, (S)-N-(3,4-dichlorobenzyl)-1-(2-((3,4,5-trimethoxyphenyl)amino)-4-pyrimidinyl)-3-piperidinecarboxamide] | 100 to 1000 nM
COc1ccc(CNC(=O)[C@H]2CCCN(c3ccnc(Nc4cc(OC)c(OC)c(OC)c4)n3)C2)cc1OC [Example 66, (S)-N-(3,4-dimethoxybenzyl)-1-(2-((3,4,5-trimethoxyphenyl)amino)-4-pyrimidinyl)-3-piperidinecarboxamide] | 1000 to 5000 nM
COc1cc(Nc2nccc(N3CCC[C@H](C(=O)NCc4ccc(F)c(F)c4)C3)n2)cc(OC)c1OC [Example 67, (S)-N-(3,4-difluorobenzyl)-1-(2-((3,4,5-trimethoxyphenyl)amino)-4-pyrimidinyl)-3-piperidinecarboxamide] | 100 to 1000 nM
COc1cc(Nc2nccc(N3CCC[C@H](C(=O)NCc4ccc(F)c(Cl)c4)C3)n2)cc(OC)c1OC [Example 68, (S)-N-(3-chloro-4-fluorobenzyl)-1-(2-((3,4,5-trimethoxyphenyl)amino)-4-pyrimidinyl)-3-pipcridinecarboxamide] | 100 to 1000 nM
COc1cc(Nc2nccc(N3CCC[C@H](C(=O)NCc4ccc5c(c4)CCCN5C)C3)n2)cc(OC)c1OC [Example 73, (S)-N-((1-methyl-1,2,3,4-tetrahydro-6-quinolinyl)methyl)-1-(2-((3,4,5-trimethoxyphenyl)amino)-4-pyrimidinyl)-3-piperidinecarboxamide] | 1000 to 5000 nM

Results, then the compound that gave them:

IC50 | SMILES
1000 to 5000 nM | COc1cccc([C@@H](C)NC(=O)[C@H]2CCCN(c3ccnc(Nc4cc(OC)c(OC)c(OC)c4)n3)C2)c1 [Example 48, (S)-N-((R)-1-(3-methoxyphenyl)ethyl)-1-(2-((3,4,5-trimethoxyphenyl)amino)-4-pyrimidinyl)-3-piperidinecarboxamide]
1000 to 5000 nM | COc1cc(Nc2nccc(N3CCC[C@H](C(=O)NCc4ccccc4Br)C3)n2)cc(OC)c1OC [Example 49, (S)-N-(2-bromobenzyl)-1-(2-((3,4,5-trimethoxyphenyl)amino)-4-pyrimidinyl)-3-piperidinecarboxamide]
5000 to 10000 nM | COc1cc(Nc2nccc(N3CCC[C@H](C(=O)NC(C)c4ccc(O)cc4)C3)n2)cc(OC)c1OC (stereo partly drawn) [Example 53, (S)-N-(1-(4-hydroxyphenyl)ethyl)-1-(2-((3,4,5-trimethoxyphenyl)amino)-4-pyrimidinyl)-3-piperidinecarboxamide]
< 50 nM | COc1cc(Nc2nccc(N3CCC[C@H](C(=O)NCc4ccc(Br)cc4F)C3)n2)cc(OC)c1OC [Example 56, (S)-N-(4-bromo-2-fluorobenzyl)-1-(2-((3,4,5-trimethoxyphenyl)amino)-4-pyrimidinyl)-3-piperidinecarboxamide]
1000 to 5000 nM | COc1cc(Nc2nccc(N3CCC[C@H](C(=O)NCc4nc(C)cs4)C3)n2)cc(OC)c1OC [Example 59, (S)-N-((4-methyl-1,3-thiazol-2-yl)methyl)-1-(2-((3,4,5-trimethoxyphenyl)amino)-4-pyrimidinyl)-3-piperidinecarboxamide]
5000 to 10000 nM | COc1cc(Nc2nccc(N3CCC[C@H](C(=O)NCCc4cn5ccccc5n4)C3)n2)cc(OC)c1OC [Example 61, (S)-N-(2-imidazo[1,2-a]pyridin-2-ylethyl)-1-(2-((3,4,5-trimethoxyphenyl)amino)-4-pyrimidinyl)-3-piperidinecarboxamide]
100 to 1000 nM | COc1cc(Nc2nccc(N3CCC[C@H](C(=O)NCCOc4ccccc4)C3)n2)cc(OC)c1OC [Example 62, (S)-N-(2-phenoxyethyl)-1-(2-((3,4,5-trimethoxyphenyl)amino)-4-pyrimidinyl)-3-piperidinecarboxamide]
< 50 nM | COc1cc(Nc2nccc(N3CCC[C@H](C(=O)NCc4ccc(C(C)(C)C)cc4)C3)n2)cc(OC)c1OC [Example 70, (S)-N-(4-tert-butylbenzyl)-1-(2-((3,4,5-trimethoxyphenyl)amino)-4-pyrimidinyl)-3-piperidinecarboxamide]
100 to 1000 nM | COc1cc(Nc2nccc(N3CCC[C@H](C(=O)NCc4ccc(Oc5ccc(F)cc5)cc4)C3)n2)cc(OC)c1OC [Example 72, (S)-N-(4-(4-fluorophenoxy)benzyl)-1-(2-((3,4,5-trimethoxyphenyl)amino)-4-pyrimidinyl)-3-piperidinecarboxamide]
